The values below come from ChEMBL document CHEMBL1135858, “Vitamin D(3): synthesis of seco-C-9,11-bisnor-17-methyl-1 alpha,25-dihydroxyvitamin D(3) analogues” (2002).

The test system of one assay is HL-60. Put plainly: Percent inhibition against HL-60 cell line (50% dose response), relative to 1-alpha,25 (OH)2D3 (100% activity) determined in vitro. The format is functional, Homo sapiens. Also noted: scale not given: the % may be the effect or the level left.
For another assay, the system named is Keratinocyte. Kind of assay: Percent inhibition against Keratinocytes cell line (50% dose response), relative to 1-alpha,25 (OH)2D3 (100% activity) determined in vitro. In kind it is functional, Homo sapiens. Details: scale not given: the % may be the effect or the level left.
The next assay deals with Mus musculus. Put plainly: Calcemic effect in vivo in vitamin D-replete normal NMRI mice by daily intraperitoneal injections of compound and 1-alpha,25 (OH)2D3 for 7 consecutive days. The format is functional.
For a further assay, the system named is MCF7. Put plainly: Percent inhibition against MCF-7 cell line (50% dose response), relative to 1-alpha,25 (OH)2D3 (100% activity) determined in vitro. The format is functional, Homo sapiens. Details: scale not given: the % may be the effect or the level left.
For assay [1], the target named is T1, Vitamin D3 receptor (Sus scrofa) (UniProt A3RGC1).
T1 sequence (whole entry): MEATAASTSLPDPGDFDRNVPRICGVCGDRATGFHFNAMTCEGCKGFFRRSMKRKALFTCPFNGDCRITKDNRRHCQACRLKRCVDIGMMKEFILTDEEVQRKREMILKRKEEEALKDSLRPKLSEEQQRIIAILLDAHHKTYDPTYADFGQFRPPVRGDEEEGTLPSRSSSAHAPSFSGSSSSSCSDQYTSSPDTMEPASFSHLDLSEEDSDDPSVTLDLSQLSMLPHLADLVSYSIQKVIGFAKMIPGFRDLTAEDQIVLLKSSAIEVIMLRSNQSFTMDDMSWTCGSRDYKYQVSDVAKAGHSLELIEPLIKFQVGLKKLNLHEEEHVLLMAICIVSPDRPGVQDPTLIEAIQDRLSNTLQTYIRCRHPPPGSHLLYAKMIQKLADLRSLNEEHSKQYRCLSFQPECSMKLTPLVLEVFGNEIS
Put plainly: (§1) Displacement of 50% binding of [3H]alpha,25 (OH)2D3 from pig intestinal mucosa Vitamin D3 receptor.

For assay [2], the target named is T1, Vitamin D3 receptor (Sus scrofa). The description is as §1. The format is tissue-based.

On to `CC(CC#CC(O)(C(F)(F)F)C(F)(F)F)C[C@@H](C)[C@@]1(C)CC[C@@H](/C=C/C=C2C[C@@H](O)C[C@H](O)C2)C1(C)C` (stereo not given in full), for which the Activity is on record as 300% in the assay with HL-60, 3000% with Keratinocyte, 3% in the assay with Mus musculus and 1500% in the assay with MCF7. For the same molecule, in assay [1], the Relative affinity stood at 50.
For the molecule `CCC(O)(CC)CCCC(C)C[C@@H](C)[C@@]1(C)CC[C@@H](/C=C/C=C2C[C@@H](O)C[C@H](O)C2)C1(C)C` (stereo not given in full), the Activity was 80% in the assay with HL-60, 300% in the assay with Keratinocyte, 0.5% in the assay on Mus musculus and 150% with MCF7. This molecule also registered a Relative affinity in assay [1] of 10.
In the case of `CC(CC#CC(C)(C)O)C[C@@H](C)[C@@]1(C)CC[C@@H](/C=C/C=C2C[C@@H](O)C[C@H](O)C2)C1(C)C` (stereo not given in full), the Activity is listed as 85% in the assay on HL-60, 200% with Keratinocyte, 0.12% in the assay on Mus musculus and 70% in the assay on MCF7. Besides, in assay [1], the Relative affinity was 7.
In the case of `CC(CCCC(C)(C)O)C[C@@H](C)[C@@]1(C)CC[C@@H](/C=C/C=C2C[C@@H](O)C[C@H](O)C2)C1(C)C` (stereo not given in full), the Activity is given as 10% in the assay on HL-60, 80% in the assay with Keratinocyte, 0.12% in the assay on Mus musculus and 8% in the assay with MCF7. Moreover, the Relative affinity in assay [1] was found to be 3.
Regarding `C=C1C(=CC=C[C@@H]2CC[C@](C)([C@H](C)CC(C)CCCC(C)(C)O)C2(C)C)C[C@@H](O)C[C@@H]1O` (stereo not given in full), the Activity is recorded as 50% in the assay with HL-60, 100% with Keratinocyte, 0.25% in the assay on Mus musculus and 60% with MCF7. This molecule also showed a Relative affinity in assay [1] of 6.
As to `CC(CCCC(O)(C(F)(F)F)C(F)(F)F)C[C@H](C)[C@@]1(C)CC[C@@H](/C=C/C=C2C[C@@H](O)C[C@H](O)C2)C1(C)C` (stereo not given in full), the Activity was 400% in the assay on HL-60, 16000% in the assay with Keratinocyte, 100% with Mus musculus and 20000% with MCF7. Besides, the Relative affinity in assay [2] came to 40.
Consider `CC(CCCC(C)(C)O)C[C@H](C)[C@@]1(C)CC[C@@H](/C=C/C=C2C[C@@H](O)C[C@H](O)C2)C1(C)C` (stereo not given in full), for which the Activity is given as 600% with HL-60, 600% with Keratinocyte, 0.5% with Mus musculus and 400% in the assay with MCF7. Besides, the Relative affinity in assay [2] was 40.
Consider `C=C1C(=CC=C[C@@H]2CC[C@](C)([C@@H](C)CC(C)CCCC(O)(C(F)(F)F)C(F)(F)F)C2(C)C)C[C@@H](O)C[C@@H]1O` (stereo not given in full), for which the Activity is recorded as 400% in the assay with HL-60, 20000% in the assay with Keratinocyte, more than 100% with Mus musculus and 30000% with MCF7. Also, the Relative affinity in assay [2] is 60.
Consider `C=C1C(=CC=C[C@@H]2CC[C@](C)([C@H](C)CC(C)CC#CC(C)(C)O)C2(C)C)C[C@@H](O)C[C@@H]1O` (stereo not given in full), for which the Activity is 80% with HL-60, 500% in the assay on Keratinocyte, 3% in the assay on Mus musculus and 600% in the assay with MCF7. Moreover, the Relative affinity in assay [1] is 60.
`CC(CC#CC(C)(C)O)C[C@H](C)[C@@]1(C)CC[C@@H](/C=C/C=C2C[C@@H](O)C[C@H](O)C2)C1(C)C` (stereo not given in full): the Activity in the assay on HL-60 is given as 350%; in the assay with Keratinocyte it was 2000%; in the assay on Mus musculus, 4%; with MCF7 it was 1300%. The Relative affinity in assay [2] came out at 40.
Consider `CCC(O)(C#CCC(C)C[C@H](C)[C@@]1(C)CC[C@@H](/C=C/C=C2C[C@@H](O)C[C@H](O)C2)C1(C)C)CC` (stereo not given in full), for which the Activity with HL-60 was 400%; in the assay with Keratinocyte it was 300%; in the assay on Mus musculus it was 2%; in the assay on MCF7 it was 700%. Further, in assay [2], the Relative affinity was 60.
For `C=C1C(=CC=C[C@@H]2CC[C@](C)([C@@H](C)CC(C)CC#CC(C)(C)O)C2(C)C)C[C@@H](O)C[C@@H]1O` (stereo not given in full), the Activity in the assay on HL-60 is 800%; with Keratinocyte it was 3250%; in the assay with Mus musculus, 3%; in the assay with MCF7, 1250%. In addition, the Relative affinity in assay [2] amounted to 75.
`CCC(O)(C#CCC(C)C[C@@H](C)[C@@]1(C)CC[C@@H](/C=C/C=C2C[C@@H](O)C[C@H](O)C2)C1(C)C)CC` (stereo not given in full): the Activity in the assay on HL-60 is given as 50%; with Keratinocyte, 85%; in the assay on Mus musculus, 0.25%; in the assay with MCF7 it was 85%. Also, the Relative affinity in assay [1] worked out at 50.
For the molecule `C=C1C(=CC=C[C@@H]2CC[C@](C)([C@@H](C)CC(C)CCCC(O)(CC)CC)C2(C)C)C[C@@H](O)C[C@@H]1O` (stereo not given in full), the Activity in the assay with HL-60 is 1250%; with Keratinocyte it was 7000%; with Mus musculus it was 100%; in the assay on MCF7, 15000%. In addition, in assay [2], the Relative affinity was 85.
As to `C=C1C(=CC=C[C@@H]2CC[C@](C)([C@H](C)CC(C)CCCC(O)(CC)CC)C2(C)C)C[C@@H](O)C[C@@H]1O` (stereo not given in full), the Activity with HL-60 is reported as 150%; in the assay with Keratinocyte, 400%; in the assay with Mus musculus, 2%; with MCF7, 300%. Moreover, in assay [1], the Relative affinity was determined as 50.
Take `C=C1C(=CC=C[C@@H]2CC[C@](C)([C@@H](C)CC(C)CC#CC(O)(C(F)(F)F)C(F)(F)F)C2(C)C)C[C@@H](O)C[C@@H]1O` (stereo not given in full): the Activity in the assay on HL-60 is recorded as 1250%; in the assay with Keratinocyte, 15000%; with Mus musculus it was 25%; in the assay with MCF7, 8000%. The Relative affinity in assay [2] stood at 75.
For `CCC(O)(CC)CCCC(C)C[C@H](C)[C@@]1(C)CC[C@@H](/C=C/C=C2C[C@@H](O)C[C@H](O)C2)C1(C)C` (stereo not given in full), the Activity with HL-60 was 500%; in the assay with Keratinocyte, 7000%; in the assay with Mus musculus, 20%; in the assay on MCF7 it was 7500%. In addition, the Relative affinity in assay [2] was 60.
Consider `CC(CCCC(O)(C(F)(F)F)C(F)(F)F)C[C@@H](C)[C@@]1(C)CC[C@@H](/C=C/C=C2C[C@@H](O)C[C@H](O)C2)C1(C)C` (stereo not given in full), for which the Activity is on record as 100% in the assay with HL-60, 1500% in the assay on Keratinocyte, 50% in the assay with Mus musculus and 600% with MCF7. In assay [1], this molecule gave a Relative affinity of 9.
As for `CC(CC#CC(O)(C(F)(F)F)C(F)(F)F)C[C@H](C)[C@@]1(C)CC[C@@H](/C=C/C=C2C[C@@H](O)C[C@H](O)C2)C1(C)C` (stereo not given in full), the Activity with HL-60 is reported as 400%; in the assay with Keratinocyte, 15000%; in the assay with Mus musculus, 25%; with MCF7, 6000%. In addition, the Relative affinity in assay [2] was found to be 50.
For the molecule `C=C1C(=CC=C[C@@H]2CC[C@](C)([C@H](C)CC(C)CC#CC(O)(CC)CC)C2(C)C)C[C@@H](O)C[C@@H]1O` (stereo not given in full), the Activity with HL-60 was 75%; in the assay with Keratinocyte, 80%; in the assay with Mus musculus it was 2%; with MCF7, 150%. In assay [1], this molecule registered a Relative affinity of 80.
In the case of `C=C1/C(=C\C=C2/CCC[C@]3(C)[C@@H]([C@H](C)CCCC(C)(C)O)CC[C@@H]23)C[C@@H](O)C[C@@H]1O` [CALCITRIOL], the Activity in the assay on HL-60, in the assay on Keratinocyte, in the assay with Mus musculus and with MCF7 was 100% in each case. Besides, in assay [2], the Relative affinity amounted to 100.
For `C=C1C(=CC=C[C@@H]2CC[C@](C)([C@@H](C)CC(C)CCCC(C)(C)O)C2(C)C)C[C@@H](O)C[C@@H]1O` (stereo not given in full), the Activity with HL-60 is reported as 800%; in the assay with Keratinocyte, 1000%; in the assay with Mus musculus, 8%; in the assay with MCF7, 2000%. Further, in assay [1], the Relative affinity was found to be 85.
In the case of `C=C1C(=CC=C[C@@H]2CC[C@](C)([C@H](C)CC(C)CC#CC(O)(C(F)(F)F)C(F)(F)F)C2(C)C)C[C@@H](O)C[C@@H]1O` (stereo not given in full), the Activity is recorded as 250% with HL-60, 3600% with Keratinocyte, 6% with Mus musculus and 4500% with MCF7. Also, the Relative affinity in assay [1] turned out to be 60.
For `C=C1C(=CC=C[C@@H]2CC[C@](C)([C@@H](C)CC(C)CC#CC(O)(CC)CC)C2(C)C)C[C@@H](O)C[C@@H]1O` (stereo not given in full), the Activity with HL-60 was 600%; in the assay on Keratinocyte it was 800%; in the assay on Mus musculus, 25%; in the assay on MCF7, 750%. In assay [2], this molecule displayed a Relative affinity of 80.
For the molecule `C=C1C(=CC=C[C@@H]2CC[C@](C)([C@H](C)CC(C)CCCC(O)(C(F)(F)F)C(F)(F)F)C2(C)C)C[C@@H](O)C[C@@H]1O` (stereo not given in full), the Activity in the assay with HL-60 is listed as 150%; in the assay on Keratinocyte it was 2400%; with Mus musculus, 10%; in the assay with MCF7, 2500%. For the same molecule, the Relative affinity in assay [1] came out at 30.
